Measured values published in patent publication US12023387B2, “NIR-II emissive luminogens” (THE HONG KONG UNIVERSTIY OF SCIENCE AND TECHNOLOGY, priority 2018, dated 2024).

Columns and labels:
[1] = UV-vis absorption spectrum in THF solution; format: physicochemical; conditions: THE (THF) solution, 10 μM
[2] = AIE property: photoluminescence in THF/water mixtures with varying water fraction; format: physicochemical
Experimental: FIG. 4 depicts (A) an image of TSPCI powder in daylight; (B) the UV-vis absorption spectrum of TSPCI; (C) the photoluminescence (PL) spectra of TSPCI in THF and THF/water mixtures with different water fractions (fw); and (D) the plot of relative PL intensities at 950 nm versus the fw (concentration: 10 μM; excitation wavelength: 808 nm).
The AIE property of TSPCI was investigated by varying the water fractions (fw) in tetrahydrofuran (THF)/water mixtures (FIG. 4C). […] The strongest emission intensity at ˜950 nm reached its maximum value at 90 vol % water content, which was ˜35-fold higher than that in the pure THF due to the restriction of intramolecular rotation ([…]).

nude mouse = experiment: In vivo dynamic NIR-II fluorescence imaging after intravenous injection; conditions: i.v. injection of TSPCI solution in water, images 1-5 s after injection, 808 nm excitation, 1000 nm long-pass filter
Experimental: NIR-I fluorescence imaging was performed using the Maestro in vivo imaging system (CRI, Inc.). To acquire fluorescence of an NIR-I AIEgen (TTD), a 605 nm (+25 nm) bandpass filter and a 645 nm longpass filter were selected as the excitation filter and the emission filter, respectively. NIR-II imaging was performed using the home-built NIR-II in vivo imaging system. The excitation light was provided by an 808 nm diode laser. The emitted light from the TSPCI was filtered through a 1000 nm long-pass filter, which was coupled with a two-dimensional InGaAs array camera (with spectral response range of 900-1700 nm, Photonic Science) for NIR-II fluorescence signal collection. The excitation power density at the imaging plane was 6.4 mW/cm^2, much lower than the safe exposure limit of 330 mW/cm^2 at 808 nm determined by the International Commission on Nonionizing Radiation Protection. […]
TSPCI was added to water under sonication to provide a TSPCI solution. […] FIG. 7A depicts an NIR-II fluorescence image of the nude mouse before intravenous injection of TSPCI solution. FIG. 7B depicts an NIR-II fluorescence image of the nude mouse one second after injection of TSPCI solution. FIG. 7C depicts an NIR-II fluorescence image of the nude mouse two seconds after injection of TSPCI solution. FIG. 7D depicts an NIR-II fluorescence image of the nude mouse three seconds after injection of TSPCI solution. […]

## N#CC(C#N)=C1C(=C2C=C(/C=C/c3ccc(N(c4ccccc4)c4ccccc4)cc3)OC(/C=C/c3ccc(N(c4ccccc4)c4ccccc4)cc3)=C2)C(=C(C#N)C#N)c2ccccc21 [TSPCI]
[1]
  maximal absorption wavelength: 682 nm
[2]; THF/water mixtures, excitation 808 nm
  wavelength of strongest emission intensity: ~950 nm
[2]; aggregate state, bright emission, NIR-II
  emission spectrum range in aggregate state: 1000-1700 nm
[2]; at ~950 nm, 90 vol % water content in THF/water, 10 μM, excitation 808 nm
  emission intensity enhancement versus pure THF: ~35 fold
[2]; pure THF (fw=0)
  emission in pure THF solution: no emission was observed
Nude mouse
  in vivo NIR-II imaging performance: high contrast and penetration depth
